In experiment [1] the target is DYRK1A (Homo sapiens (Human), UniProt Q13627). The experiment is described as follows: DYRK1A activity Tau assay: pSer396 Tau in SH-SY5Y cells by ELISA / western blot. The class given is cell-based. Particulars: overnight (16-18 h) exposure. For orientation: In an ELISA, binding on a coated surface is turned into a signal by an enzyme label.
Experiment [2] relates to Wnt activity (Wnt-responsive SP5 promoter luciferase reporter in SW480 cells). Put plainly: Wnt activity reporter assay: SW480 cells with SP5 promoter-driven firefly luciferase. Particulars: Homo sapiens, 24 h after compound addition, read-out: Wnt inhibition. It counts as cell-based. The text has this:
The above synthesized compounds were screened using the assay procedure for Wnt activity described below.
Reporter cell lines were generated by stably transducing cells of cancer cell lines (e.g., colon cancer) with a lentiviral construct that include a Wnt-responsive promoter driving expression of the firefly luciferase gene.
Lentiviral constructs were made in which the SP5 promoter, a promoter having eight TCF/LEF binding sites derived from the SP5 promoter, was linked upstream of the firefly luciferase gene. The lentiviral constructs included a hygromycin resistance gene as a selectable marker. The SP5 promoter construct was used to transduce SW480 cells, a colon cancer cell line having a mutated APC gene that generates a truncated APC protein, leading to de-regulated accumulation of β-catenin.
Cultured SW480 cells bearing a reporter construct were distributed at approximately 10,000 cells per well into 384 well multiwell plates. Compounds were then added to the wells in half-log dilutions using a three micromolar top concentration. A series of control wells for each cell type received only buffer and compound solvent. Twenty-four hours after the addition of compound, reporter activity for luciferases was assayed, for example, by addition of the BrightGlo luminescence reagent (Promega) and the Victor3 plate reader (Perkin Elmer). Readings were normalized to DMSO only treated cells, and normalized activities were then used for the IC50 calculations.
In general terms: Reporter assays use an easily measured gene product as a stand-in for the process of interest.

From patent US10669240B2, “5-substituted indazole-3-carboxamides and preparation and use thereof” (Samumed, LLC, priority 2014, dated 2020) come the findings set out here.

The term EC50 denotes the concentration giving half of the maximal effect. A high value points to a need for much substance.

`CN1CCC(NC(=O)c2n[nH]c3ccc(-c4cncc(CN5CCC5)c4)cc23)CC1` [Compound 8, 5-(5-(Azetidin-1-ylmethyl)pyridin-3-yl)-N-(1-methylpiperidin-4-yl)-1H-indazole-3-carboxamide]: the EC50 in experiment [1] amounted to 53 nM. For the same compound, the IC50 in experiment [2] amounted to 6290 nM.

For `O=C(NC1CC1)c1n[nH]c2ccc(-c3cncc(CN4CCCCC4)c3)cc12` [Compound 9, N-Cyclopropyl-5-(5-(piperidin-1-ylmethyl)pyridin-3-yl)-1H-indazole-3-carboxamide], in experiment [1], the EC50 came out at 2 nM. Also, the IC50 in experiment [2] was 2910 nM.

`O=C(NC1CC1)c1n[nH]c2ccc(-c3cc(F)cc(CN4CCCCC4)c3)cc12` [Compound 11, N-Cyclopropyl-5-(3-fluoro-5-(piperidin-1-ylmethyl)phenyl)-1H-indazole-3-carboxamide] showed an EC50 in experiment [1] of 36 nM. In addition, in experiment [2], the IC50 came to 7950 nM.

`CN1CCC(NC(=O)c2n[nH]c3ccc(-c4ccccc4F)cc23)CC1` [Compound 16, 5-(2-Fluorophenyl)-N-(1-methylpiperidin-4-yl)-1H-indazole-3-carboxamide] returned a half-maximal effective concentration (EC50) in experiment [1] of 335 nM. Moreover, in experiment [2], the IC50 is 14600 nM.

Consider `CN1CCC(NC(=O)c2n[nH]c3ccc(-c4ccc(F)c(F)c4)cc23)CC1` [Compound 19, 5-(3,4-Difluorophenyl)-N-(1-methylpiperidin-4-yl)-1H-indazole-3-carboxamide], for which, in experiment [1], the EC50 was 848 nM. Further, in experiment [2], the IC50 was 6800 nM.

Consider `CN1CCC(NC(=O)c2n[nH]c3ccc(-c4cc(F)cc(F)c4)cc23)CC1` [Compound 21, 5-(3,5-Difluorophenyl)-N-(1-methylpiperidin-4-yl)-1H-indazole-3-carboxamide], for which the concentration for a half-maximal effect (EC50) in experiment [1] amounted to 744 nM. The IC50 in experiment [2] turned out to be 1310 nM.

Compound `O=C(NCc1cccc(F)c1)c1n[nH]c2ccc(-c3cncc(CN4CCCCC4)c3)cc12` [Compound 27, N-(3-Fluorobenzyl)-5-(5-(piperidin-1-ylmethyl)pyridin-3-yl)-1H-indazole-3-carboxamide] came in with an EC50 in experiment [1] of 2 nM. For the same compound, the IC50 in experiment [2] worked out at 1760 nM.

Turning to `O=C(NCc1cc(F)cc(F)c1)c1n[nH]c2ccc(-c3cncc(CN4CCCCC4)c3)cc12` [Compound 28, N-(3,5-Difluorobenzyl)-5-(5-(piperidin-1-ylmethyl)pyridin-3-yl)-1H-indazole-3-carboxamide], in experiment [1], the EC50 worked out at 2 nM. Also, the IC50 in experiment [2] was 3100 nM.

In experiment [1], `O=C(NCc1ccccc1)c1n[nH]c2ccc(-c3cc(F)cc(CN4CCCCC4)c3)cc12` [Compound 29, N-Benzyl-5-(3-fluoro-5-(piperidin-1-ylmethyl)phenyl)-1H-indazole-3-carboxamide] returned an EC50 of 117 nM. Besides, the IC50 in experiment [2] is 3470 nM.

In experiment [1], `O=C(NC1(c2ccccc2)CC1)c1n[nH]c2ccc(-c3cncc(CN4CCC4)c3)cc12` [Compound 33, 5-(5-(Azetidin-1-ylmethyl)pyridin-3-yl)-N-(1-phenylcyclopropyl)-1H-indazole-3-carboxamide] came in with an EC50 of 63 nM. Besides, the IC50 in experiment [2] is 6700 nM.

For the compound `O=C(NC1(c2ccccc2)CC1)c1n[nH]c2ccc(-c3cncc(CN4CCC(F)(F)C4)c3)cc12` [Compound 35, 5-(5-((3,3-Difluoropyrrolidin-1-yl)methyl)pyridin-3-yl)-N-(1-phenylcyclopropyl)-1H-indazole-3-carboxamide], in experiment [1], the EC50 was 85 nM. Besides, the IC50 in experiment [2] was determined as 6390 nM.

For the compound `O=C(N[C@@H]1C[C@@H]1c1ccccc1)c1n[nH]c2ccc(-c3cccnc3)cc12` [Compound 38, N-((1R,2R)-2-Phenylcyclopropyl)-5-(pyridin-3-yl)-1H-indazole-3-carboxamide], in experiment [1], the response was half-maximal at 4 nM (EC50). Moreover, the IC50 in experiment [2] was 1570 nM.

Regarding `O=C(N[C@@H]1C[C@@H]1c1ccccc1)c1n[nH]c2ccc(-c3cncc(CN4CCCCC4)c3)cc12` [Compound 39, N-((1R,2R)-2-Phenylcyclopropyl)-5-(5-(piperidin-1-ylmethyl)pyridin-3-yl)-1H-indazole-3-carboxamide], the EC50 in experiment [1] came to 1 nM. For the same compound, the IC50 in experiment [2] came to 490 nM.

In experiment [1], `Cc1cc2[nH]nc(C(=O)Nc3cccnc3)c2cc1-c1cccnc1` [Compound 44, 6-Methyl-N,5-di(pyridin-3-yl)-1H-indazole-3-carboxamide] had a concentration giving a half-maximal response (EC50) of 23 nM. In addition, in experiment [2], the IC50 turned out to be 6120 nM.

Turning to `O=C(Nc1ccccn1)c1n[nH]c2ccc(-c3cncc(CN4CCCCC4)c3)cc12` [Compound 56, 5-(5-(Piperidin-1-ylmethyl)pyridin-3-yl)-N-(pyridin-2-yl)-1H-indazole-3-carboxamide], in experiment [1], it took 3 nM to reach a half-maximal effect (EC50). Also, the IC50 in experiment [2] came to 1100 nM.

In experiment [1], `O=C(Nc1ncc(F)cc1F)c1n[nH]c2ccc(-c3cncc(CN4CCCCC4)c3)cc12` [Compound 58, N-(3,5-Difluoropyridin-2-yl)-5-(5-(piperidin-1-ylmethyl)pyridin-3-yl)-1H-indazole-3-carboxamide] had an EC50 of 3 nM. In experiment [2], the IC50 turned out to be 4010 nM.

`CN(C(=O)c1n[nH]c2ccc(-c3cncc(CN4CCCCC4)c3)cc12)c1cccnc1` [Compound 76, N-Methyl-5-(5-(piperidin-1-ylmethyl)pyridin-3-yl)-N-(pyridin-3-yl)-1H-indazole-3-carboxamide]: the EC50 in experiment [1] amounted to 990 nM. Moreover, the IC50 in experiment [2] came to 6500 nM.

The compound `O=C(Nc1cccc2cccnc12)c1n[nH]c2ccc(-c3cncc(CN4CCCCC4)c3)cc12` [Compound 81, 5-(5-(Piperidin-1-ylmethyl)pyridin-3-yl)-N-(quinolin-8-yl)-1H-indazole-3-carboxamide] displayed an EC50 in experiment [1] of 312 nM. Also, the IC50 in experiment [2] turned out to be 7660 nM.

As to `NC(=O)c1n[nH]c2ccc(-c3cncc(CN4CCCCC4)c3)cc12` [Compound 89, 5-(5-(Piperidin-1-ylmethyl)pyridin-3-yl)-1H-indazole-3-carboxamide], the response in experiment [1] was half-maximal at 6 nM (EC50). In addition, the IC50 in experiment [2] is 1960 nM.

In experiment [1], `CN1CCC(NC(=O)c2n[nH]c3ccc(-c4cncc(C(F)(F)F)c4)cc23)CC1` [Compound 95, N-(1-Methylpiperidin-4-yl)-5-(5-(trifluoromethyl)pyridin-3-yl)-1H-indazole-3-carboxamide] yielded a half-maximal effective concentration (EC50) of 261 nM. Also, the IC50 in experiment [2] is 1070 nM.

On to `O=C(Nc1cccnc1)c1n[nH]c2ccc(-c3cccc(F)c3F)cc12` [Compound 96, 5-(2,3-Difluorophenyl)-N-(pyridin-3-yl)-1H-indazole-3-carboxamide], for which the EC50 in experiment [1] was found to be 134 nM. For the same compound, in experiment [2], the IC50 stood at 4670 nM.

In experiment [1], `O=C(NC1CCNCC1)c1n[nH]c2ccc(-c3cccc(F)c3F)cc12` [Compound 254, 5-(2,3-Difluorophenyl)-N-(piperidin-4-yl)-1H-indazole-3-carboxamide] came in with an EC50 of 66 nM. The IC50 in experiment [2] stood at 7900 nM.

The compound `CN1CCC(NC(=O)c2n[nH]c3ccc(-c4cc(CN5CCCCC5)cc(F)c4F)cc23)CC1` [Compound 272, 5-(2,3-Difluoro-5-(piperidin-1-ylmethyl)phenyl)-N-(1-methylpiperidin-4-yl)-1H-indazole-3-carboxamide] registered an EC50 in experiment [1] of 15 nM. Moreover, in experiment [2], the IC50 amounted to 1700 nM.

Compound `CC(C)(C)N1CCC(NC(=O)c2n[nH]c3ccc(-c4cccnc4)cc23)CC1` [Compound 291, N-(1-(tert-Butyl)piperidin-4-yl)-5-(pyridin-3-yl)-1H-indazole-3-carboxamide] yielded an EC50 in experiment [1] of 21 nM. Also, the IC50 in experiment [2] was 1010 nM.

`CC(C)(C)CN1CCC(NC(=O)c2n[nH]c3ccc(-c4cccnc4)cc23)CC1` [Compound 329, N-(1-Neopentylpiperidin-4-yl)-5-(pyridin-3-yl)-1H-indazole-3-carboxamide]: the EC50 in experiment [1] was found to be 7 nM. Besides, in experiment [2], the IC50 stood at 4650 nM.

With `O=C(NC1CCN(CCF)CC1)c1n[nH]c2ccc(-c3cccc(F)c3F)cc12` [Compound 1160, 5-(2,3-Difluorophenyl)-N-(1-(2-fluoroethyl)piperidin-4-yl)-1H-indazole-3-carboxamide], the EC50 in experiment [1] worked out at 40 nM. The IC50 in experiment [2] was found to be 1100 nM.

On to `O=C(NC1CCN(C2COC2)CC1)c1n[nH]c2ccc(-c3cccc(F)c3F)cc12` [Compound 1164, 5-(2,3-Difluorophenyl)-N-(1-(oxetan-3-yl)piperidin-4-yl)-1H-indazole-3-carboxamide], for which the EC50 in experiment [1] turned out to be 49 nM. Also, the IC50 in experiment [2] turned out to be 1400 nM.

In turn, `O=C(NCCN1CCCC1)c1n[nH]c2ccc(-c3cccc(F)c3F)cc12` [Compound 1166, 5-(2,3-Difluorophenyl)-N-(2-(pyrrolidin-1-yl)ethyl)-1H-indazole-3-carboxamide] yielded an EC50 in experiment [1] of 79 nM. In addition, in experiment [2], the IC50 was determined as 2400 nM.

In experiment [1], `CN(C)CCNC(=O)c1n[nH]c2ccc(-c3cccnc3)cc12` [Compound 1259, N-(2-(Dimethylamino)ethyl)-5-(pyridin-3-yl)-1H-indazole-3-carboxamide] had an EC50 of 20 nM. Besides, the IC50 in experiment [2] came to 1800 nM.

The compound `CC(C)OCCCNC(=O)c1n[nH]c2ccc(-c3cccnc3)cc12` [Compound 1261, N-(3-Isopropoxypropyl)-5-(pyridin-3-yl)-1H-indazole-3-carboxamide] returned an EC50 in experiment [1] of 5 nM. The IC50 in experiment [2] was 1000 nM.

`Cc1ccc(-c2ccc3[nH]nc(C(=O)NCCCOC(C)C)c3c2)cn1` [Compound 1262, N-(3-Isopropoxypropyl)-5-(6-methylpyridin-3-yl)-1H-indazole-3-carboxamide] showed an EC50 in experiment [1] of 60 nM. Also, the IC50 in experiment [2] stood at 1800 nM.
